Converted amounts (≈) assume the structure as drawn. “And” between values parts separate entries of the source, which are not always exact repeats. Identical values can stand only once.
What was measured:
[1] = test system: rat meibum; assay: In vivo measurement of lowered meibum melting temperature; design: species or system Sprague Dawley rats; conditions: rats
Method: The lowering of rat meibum melting temperature by Compound 1 was measured in naive Sprague Dawley rats. The test animals were administered either vehicle, or a suspension of 1% of Compound 1, as eye drops twice a day for fourteen days. The rat meibum was collected after administration of the compounds and analyzed by differential scanning calorimetry to measure the melting point. The lowering of meibum melting point in rats administered Compound 1 was compared to the vehicle.
Melting properties of meibum were obtained using differential scanning calorimetry thermograms, recorded on a TA Discovery Q5000 (ThermoAnalytical). Samples were sealed in standard 40 μl aluminum pans and subjected to a heat-cool-heat cycle with melting temperatures being recorded on the second heating ramp. The samples were first heated to 150° C. at 30K/min then cooled −30° C. at 30K/min. Next, the sample was heated to 75° C. with an underlying heating rate of 2K/min, a period of modulation of 60 seconds and a temperature amplitude of modulation of 1° C. Dry N2 gas, at a flow rate of 50 mL/min was used to purge the DSC equipment during the measurement. Onset of melting and peak temperatures were recorded with peak temperature quoted as the melting point.
Results from the assay are shown Table 3 and in FIG. 4. Results were analyzed using an unpaired t test with Welch's correction.

[2] = Stability of Compound 1 on sterilization (steam, gamma irradiation); format: physicochemical
Method: The stability of Compound 1 when sterilized by steam (autoclaving) was assessed. […] Gamma irradiation was then assessed as an alternative sterilization technique. Samples of Compound 1 were irradiated with 10-20 kGy or 20-30 kGy of gamma irradiation.

[3] = Solubility of Compound 1 in aqueous buffers; format: physicochemical
Excerpt: 3-((3-(4-(2-(isobutylsulfonyl)phenoxy)-3-(trifluoromethyl)phenyl)-1,2,4-oxadiazol-5-yl)methyl)-5,5-dimethyl-1-(2-morpholinoethyl)imidazolidine-2,4-dione (“Compound 1”) is an LXR agonist having biological activity that makes the compound useful for treating ocular diseases such as MGD (see, e.g., Example 3). However, its physical properties make formulating Compound 1 for therapeutic use (e.g., in human subjects) difficult. Compound 1 is poorly water soluble, making it difficult to formulate compositions of Compound 1 with desired concentrations of Compound 1 for therapeutic use. […] Moreover, Compound 1 has a melting temperature of only 118° C., which makes heat sterilization of Compound 1 difficult. In spite of these challenges, formulations of Compound 1 which can be used, for example, in the treatment of ocular diseases and disorders such as dry eye disease and MGD, have been developed.

[4] = Solubility of Compound 1 in different excipients; format: physicochemical
Method: The solubility of Compound 1 in different excipients was assessed.

[5] = Stability of Compound 1 in different excipients, 3 months; format: physicochemical; conditions: for HPLC (% Remaining): initial purity 99.19%
Method: The stability of Compound 1 in different excipients was assessed.

[6] = Wet ball milling: particle size and soluble fraction; format: physicochemical; conditions: aqueous with cosolvent or surfactant or cyclodextrin, thermodynamic from solid
Method: The effect of wet ball milling on Compound 1 particles size and solubility in Kolliphor® EL, Kolliphor® RH40, and tyloxopol s was assessed. […] Kolliphor® RH 40 appeared to be best wetting agent, with Kolliphor® EL also performing well.

[7] = 0.5% Kolliphor ® EL/0.5% Carbopol ® 974P, 5° C.
[8] = 0.5% Kolliphor ® EL/0.5% Carbopol ® 974P, 25° C.
[9] = 0.5% Kolliphor ® EL/0.5% Carbopol ® 974P, 40° C.
[10] = 0.5% Kolliphor ® EL/0.5% HEC, 5° C.
[11] = 0.5% Kolliphor ® EL/0.5% HEC, 25° C.
[12] = 0.5% Kolliphor ® EL/0.5% HEC, 40° C.
[13] = 0.5% Kolliphor ® RH40/0.5% Carbopol ® 974P, 5° C.
[14] = 0.5% Kolliphor ® RH40/0.5% Carbopol ® 974P, 25° C.
[15] = 0.5% Kolliphor ® RH40/0.5% Carbopol ® 974P, 40° C.
[16] = 0.5% Kolliphor ® RH40/0.5% HEC, 5° C.
[17] = 0.5% Kolliphor ® RH40/0.5% HEC, 25° C.
[18] = 0.5% Kolliphor ® RH40/0.5% HEC, 40° C.

HPLC Assay (% Remaining) Average ([2]; 10-20 kGy, samples 7-9): 98.23 ± 0.01% | HPLC Assay (% Remaining) Average ([2]; 20-30 kGy, samples 10-12): 98.14 ± 0.03% | degradation of Compound 1 by HPLC ([2]; gamma irradiated, 10-20 kGy or 20-30 kGy): less than 0.5% | Appearance ([2]; gamma irradiation 10-20 kGy): White powder | HPLC Assay (% Remaining) ([2]; gamma irradiation 10-20 kGy): 98.23% and 98.24% and 98.22% | XRPD (2-Theta) ([2]; gamma irradiation 10-20 kGy): Form A | Appearance ([2]; gamma irradiation 20-30 kGy): White powder | HPLC Assay (% Remaining) ([2]; gamma irradiation 20-30 kGy): 98.17% and 98.13% and 98.11% | XRPD (2-Theta) ([2]; gamma irradiation 20-30 kGy): Form A | Appearance ([2]; non-irradiated control): White powder | XRPD (2-Theta) ([2]; non-irradiated control): Form A | HPLC Assay (% Remaining) Average ([2]; non-irradiated control, samples 1-6): 98.48 ± 0.03% | degradation on steam sterilization ([2]; steam (autoclaving), data not shown): Significant degradation | solubility ([3]; 10 mM acetate buffer, aqueous buffer, 10 mM acetate, pH 4, read-out: solubility): 25 µg/mL (≈ 36.8 µM) | solubility ([3]; 10 mM acetate buffer, aqueous buffer, 10 mM acetate, pH 5, read-out: solubility): 1 µg/mL (≈ 1.47 µM) | solubility ([3]; 10 mM phosphate buffer at pH 7): limit of quantification | Physical form ([4]; 0.5% Tween ® 80 pH 7): No change, Form A | Physical form ([4]; 0.5% Tyloxapol pH 7): No change, Form A | Physical form ([4]; 5% HP-β-CD pH 5): No change, Form A | Physical form ([4]; 5% HP-β-CD pH 6): No change, Form A | Physical form ([4]; 5% HP-β-CD pH 7): No change, Form A | Physical form ([4]; 5% HP-γ-CD pH 7): No change, Form A | Physical form ([4]; 5% Kolliphor ® EL pH 5): No change, Form A | Physical form ([4]; 5% Kolliphor ® EL pH 6): No change, Form A | Physical form ([4]; 5% Kolliphor ® EL pH 7): No change, Form A | Physical form ([4]; 5% PEG400 pH 7): No change, Form A | Physical form ([4]; 5% PVP pH 7): No change, Form A | Compound 1 solubility ([4]; 5% Polyvinylpyrrolidone (PVP) pH 7, measured pH 6.97): <LOQ | Physical form ([4]; 10% transcutol pH 7): No change, Form A | Compound 1 solubility ([4]; 10% transcutol pH 7, measured pH 6.99): <LOQ | solubility ([4]; aqueous with cosolvent or surfactant or cyclodextrin, thermodynamic from solid, 0.5% Tween ® 80 pH 7, measured pH 7.1): 78 µg/mL (≈ 115 µM) | solubility ([4]; aqueous with cosolvent or surfactant or cyclodextrin, thermodynamic from solid, 0.5% Tyloxapol pH 7): 34 µg/mL (≈ 50 µM) | solubility ([4]; aqueous with cosolvent or surfactant or cyclodextrin, thermodynamic from solid, 5% HP-β-CD pH 5, measured pH 5.28): 180 µg/mL (≈ 265 µM) | solubility ([4]; aqueous with cosolvent or surfactant or cyclodextrin, thermodynamic from solid, 5% HP-β-CD pH 6, measured pH 6.13): 70 µg/mL (≈ 103 µM) | solubility ([4]; aqueous with cosolvent or surfactant or cyclodextrin, thermodynamic from solid, 5% HP-β-CD pH 7, measured pH 7.03): 50 µg/mL (≈ 73.6 µM) | solubility ([4]; aqueous with cosolvent or surfactant or cyclodextrin, thermodynamic from solid, 5% HP-γ-CD pH 7, measured pH 6.9): 225 µg/mL (≈ 331 µM) | solubility ([4]; aqueous with cosolvent or surfactant or cyclodextrin, 5% Kolliphor ® EL pH 5, measured pH 5.34): 1010 µg/mL (≈ 1490 µM) | solubility ([4]; aqueous with cosolvent or surfactant or cyclodextrin, 5% Kolliphor ® EL pH 6, measured pH 6.16): 740 µg/mL (≈ 1090 µM) | solubility ([4]; aqueous with cosolvent or surfactant or cyclodextrin, 5% Kolliphor ® EL pH 7, measured pH 7.01): 690 µg/mL (≈ 1020 µM) | solubility ([4]; aqueous with cosolvent or surfactant or cyclodextrin, 5% Kolliphor ® RH40, measured pH 6.91): 443 µg/mL (≈ 652 µM) | solubility ([4]; pH 7.1, aqueous with cosolvent or surfactant or cyclodextrin, 5% PEG400 pH 7, measured pH 7.10): 3 µg/mL (≈ 4.41 µM) | XRPD (2-Theta) ([5]; 0.5% Carbopol ® 974P, 5° C.): Form | HPLC (% Remaining) ([5]; 0.5% Carbopol ® 974P, 5° C.): 99.19% | XRPD (2-Theta) ([5]; 0.5% Carbopol ® 974P, 25° C.): Form | HPLC (% Remaining) ([5]; 0.5% Carbopol ® 974P, 25° C.): 99.16% | XRPD (2-Theta) ([5]; 0.5% Carbopol ® 974P, 40° C.): Form | HPLC (% Remaining) ([5]; 0.5% Carbopol ® 974P, 40° C.): 99.14% | XRPD (2-Theta) ([5]; 0.5% HEC, 5° C.): Form | HPLC (% Remaining) ([5]; 0.5% HEC, 5° C.): 99.18% | XRPD (2-Theta) ([5]; 0.5% HEC, 25° C.): Form | HPLC (% Remaining) ([5]; 0.5% HEC, 25° C.): 99.20% | XRPD (2-Theta) ([5]; 0.5% HEC, 40° C.): Form | HPLC (% Remaining) ([5]; 0.5% HEC, 40° C.): 99.17% | XRPD (2-Theta) ([5]; 0.5% Kolliphor ® EL, 5° C.): Form | HPLC (% Remaining) ([5]; 0.5% Kolliphor ® EL, 5° C.): 99.18% | XRPD (2-Theta) ([5]; 0.5% Kolliphor ® EL, 25° C.): Form | HPLC (% Remaining) ([5]; 0.5% Kolliphor ® EL, 25° C.): 99.18% | XRPD (2-Theta) ([5]; 0.5% Kolliphor ® EL, 40° C.): Form | HPLC (% Remaining) ([5]; 0.5% Kolliphor ® EL, 40° C.): 99.00% | XRPD (2-Theta) [5, 7]: Form | HPLC (% Remaining) [5, 7]: 99.18% | XRPD (2-Theta) [5, 8]: Form | HPLC (% Remaining) [5, 8]: 99.02% | XRPD (2-Theta) [5, 9]: Form | HPLC (% Remaining) [5, 9]: 97.89% | XRPD (2-Theta) [5, 10]: Form | HPLC (% Remaining) [5, 10]: 99.19% | XRPD (2-Theta) [5, 11]: Form | HPLC (% Remaining) [5, 11]: 99.02% | XRPD (2-Theta) [5, 12]: Form | HPLC (% Remaining) [5, 12]: 98.94% | XRPD (2-Theta) ([5]; 0.5% Kolliphor ® RH40, 5° C.): Form | HPLC (% Remaining) ([5]; 0.5% Kolliphor ® RH40, 5° C.): 99.18% | XRPD (2-Theta) ([5]; 0.5% Kolliphor ® RH40, 25° C.): Form | HPLC (% Remaining) ([5]; 0.5% Kolliphor ® RH40, 25° C.): 99.18% | XRPD (2-Theta) ([5]; 0.5% Kolliphor ® RH40, 40° C.): Form | HPLC (% Remaining) ([5]; 0.5% Kolliphor ® RH40, 40° C.): 99.17% | XRPD (2-Theta) [5, 13]: Form | HPLC (% Remaining) [5, 13]: 99.18% | XRPD (2-Theta) [5, 14]: Form | HPLC (% Remaining) [5, 14]: 99.17% | XRPD (2-Theta) [5, 15]: Form | HPLC (% Remaining) [5, 15]: 98.87% | XRPD (2-Theta) [5, 16]: Form | HPLC (% Remaining) [5, 16]: 99.19% | XRPD (2-Theta) [5, 17]: Form | HPLC (% Remaining) [5, 17]: 99.18% | XRPD (2-Theta) [5, 18]: Form | HPLC (% Remaining) [5, 18]: 99.18% | solubility at 24 h ([6]; 0.25% Tyloxapol @ 24 hr, 3 mm beads): 15 µg/mL (≈ 22.1 µM) | solubility at 24 h ([6]; 0.5% Tyloxapol @ 24 hr, 3 mm beads): 76 µg/mL (≈ 112 µM) | solubility at 24 h ([6]; 1% Kolliphor ® EL @ 24 hr, 3 mm beads): 270 µg/mL (≈ 397 µM) | solubility at 24 h ([6]; 1% Kolliphor ® RH-40 @ 24 hr, 3 mm beads): 344 µg/mL (≈ 506 µM) | solubility at 24 h ([6]; 2% Kolliphor ® EL @ 24 hr, 3 mm beads): 528 µg/mL (≈ 777 µM) | solubility at 24 h ([6]; 2% Kolliphor ® RH40, @ 24 hr, 1 mm beads): 650 µg/mL (≈ 956 µM) | solubility at 24 h ([6]; 2% Kolliphor ® RH-40 @ 24 hr, 3 mm beads): 669 µg/mL (≈ 984 µM) | solubility at 24 h ([6]; 4% Kolliphor ® RH40 @ 24 hr, 1 mm beads): 1200 µg/mL (≈ 1760 µM)
Compound: CC(C)CS(=O)(=O)c1ccccc1Oc1ccc(-c2noc(CN3C(=O)N(CCN4CCOCC4)C(C)(C)C3=O)n2)cc1C(F)(F)F [Compound 1, 3-((3-(4-(2-(isobutylsulfonyl)phenoxy)-3-(trifluoromethyl)phenyl)-1,2,4-oxadiazol-5-yl)methyl)-5,5-dimethyl-1-(2-morpholinoethyl)imidazolidine-2,4-dione]
Mean ± SEM meibum melting temperature ([1]; 1% suspension eye drops twice a day for fourteen days, DSC peak temperature, in °C): 28.08 ± 0.2945 | Change of Tm ([1]; versus vehicle, 1% suspension twice a day, fourteen days, P value <0.0001): −2.181 ± 0.3731 | HPLC Assay (% Remaining) ([2]; non-irradiated control): 98.51% and 98.48% and 98.44% and 98.46% and 98.49% and 98.50%

Source: patent publication US20240238305A1, “FORMULATIONS OF 3-((3-(4-(2-(ISOBUTYLSULFONYL)PHENOXY)-3-(TRIFLUOROMETHYL)PHENYL)-1,2,4-OXADIAZOL-5-YL)METHYL)-5,5-DIMETHYL-1-(2-MORPHOLINOETHYL)IMIDAZOLIDINE-2,4-DIONE” (Novartis AG, priority 2021, published 2024)
